Measured values taken from the supplement of paper PMC10627819.

Assays:
B. subtilis 168 [1] = assay: fitness (endpoint OD595 vs no drug) (fraction); higher = more growth
Method in brief: (§1)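 Plates with 384 wells were inoculated at OD595 0.01 using 30 µl of TSB, LB Lennox or CY, or 55 µl for S. pneumoniae. Incubation was at 37 °C, with OD595 measured every 30 min for 14 h. Fitness is the stationary-phase transition optical density over the robust mean of no-drug control wells, after first-reading background subtraction; it is capped at 1.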

S. aureus DSM 20231 [2] = assay: as above
Method in brief: as §1

B. subtilis 168 [3] = assay: Bliss interaction score (quartile over a dose matrix) (fitness difference); higher = more antagonism (negative = synergy)
Method in brief: (§2)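 Growth was read as OD595 when cultures entered stationary phase, and each value was divided by the plate's robust no-drug mean and capped at 1. This normalised ratio is the fitness value, and fitness for each single drug came from the combination data. The Bliss score subtracts the expected fitness, taken as the product, from the observed fitness and is given as quartiles across technical, biological and donor/recipient replicates.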

S. aureus DSM 20231 [4] = assay: as above
Method in brief: as §2

S. aureus Newman = assay: as above
Method in brief: as §2

S. pneumoniae D39V = assay: as above
Method in brief: as §2
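For Bliss interaction score (quartile over a dose matrix) in this document: first quartile when negative (synergy) and third quartile when positive (antagonism).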

COc1c(N2C[C@@H]3CCCN[C@@H]3C2)c(F)cc2c(=O)c(C(=O)O)cn(C3CC3)c12 [Moxifloxacin] + COc1cc(Cc2cnc(N)nc2N)cc(OC)c1OC [Trimethoprim]
one replicate
Details	fitness
B. subtilis 168 [1], first compound 0.0312 µg/mL, partner 0.1 µg/mL	0.0166
B. subtilis 168 [1], first compound 0.0312 µg/mL, partner 0.2 µg/mL	0.0497
B. subtilis 168 [1], first compound 0.0312 µg/mL, partner 0.4 µg/mL	0.0325
B. subtilis 168 [1], first compound 0.0625 µg/mL, partner 0.1 µg/mL	0.0397
B. subtilis 168 [1], first compound 0.0625 µg/mL, partner 0.2 µg/mL	0.0393
B. subtilis 168 [1], first compound 0.0625 µg/mL, partner 0.4 µg/mL	0.011
B. subtilis 168 [1], first compound 0.125 µg/mL, partner 0.1 µg/mL	0.0162
B. subtilis 168 [1], first compound 0.125 µg/mL, partner 0.2 µg/mL	0.0361
B. subtilis 168 [1], first compound 0.125 µg/mL, partner 0.4 µg/mL	0.0203
B. subtilis 168 [1], first compound 2 µg/mL, partner 1 µg/mL	0.0073
B. subtilis 168 [1], first compound 2 µg/mL, partner 2 µg/mL	0.0287
B. subtilis 168 [1], first compound 4 µg/mL, partner 1 µg/mL	0.0329
B. subtilis 168 [1], first compound 4 µg/mL, partner 2 µg/mL	0.0297
B. subtilis 168 [1], first compound 8 µg/mL, partner 1 µg/mL	0.0126
B. subtilis 168 [1], first compound 8 µg/mL, partner 2 µg/mL	0.0291
S. aureus DSM 20231 [2], first compound 0.0075 µg/mL, partner 0.125 µg/mL	0.719
S. aureus DSM 20231 [2], first compound 0.015 µg/mL, partner 0.125 µg/mL	0.627
S. aureus DSM 20231 [2], first compound 0.06 µg/mL, partner 0.125 µg/mL	0.653
S. aureus DSM 20231 [2], first compound 0.06 µg/mL, partner 0.25 µg/mL	0.44
S. aureus DSM 20231 [2], first compound 0.06 µg/mL, partner 0.5 µg/mL	0.191
S. aureus DSM 20231 [2], first compound 0.12 µg/mL, partner 0.125 µg/mL	0.343
S. aureus DSM 20231 [2], first compound 0.12 µg/mL, partner 0.25 µg/mL	0.139
S. aureus DSM 20231 [2], first compound 0.12 µg/mL, partner 0.5 µg/mL	0.0509

fitness
Details	partner 0.125 µg/mL	partner 0.25 µg/mL	partner 0.5 µg/mL	partner 1 µg/mL
B. subtilis 168 [1], first compound 0.0312 µg/mL	0.0627	0.103	0.0656	–
B. subtilis 168 [1], first compound 0.0625 µg/mL	0.0366	0.0436	0.0539	–
B. subtilis 168 [1], first compound 0.125 µg/mL	0.0399	0.0294	0.0335	–
B. subtilis 168 [1], first compound 2 µg/mL	–	–	0.0293	–
B. subtilis 168 [1], first compound 4 µg/mL	–	–	0.0245	–
B. subtilis 168 [1], first compound 8 µg/mL	–	–	0.0127	–
S. aureus DSM 20231 [2], first compound 0.0075 µg/mL	–	0.559	0.0549	0.0253
S. aureus DSM 20231 [2], first compound 0.015 µg/mL	–	0.525	0.0366	0.0226
S. aureus DSM 20231 [2], first compound 0.03 µg/mL	0.552	0.376	0.041	0.0152

Details	Bliss interaction score
B. subtilis 168 [3]	0.0283
S. aureus DSM 20231 [4]	-0.0854
S. aureus Newman	-0.193
S. pneumoniae D39V	0.0963
